Experimental findings from article PMC4374918, “Interaction of ATP with a Small Heat Shock Protein from Mycobacterium leprae: Effect on Its Structure and Function” (PLoS Neglected Tropical Diseases, 2015) are described below.

Series [1] addresses T1, HSP18 (Mycobacterium leprae, UniProt P12809).
T1 construct: recombinant wild-type M. leprae HSP18
Briefly: fluorescence titration, Scatchard analysis. In kind it is binding.

Series [2] addresses T1, HSP18. Put plainly: SPR (Biacore T200, HSP18 immobilized on CM5 chip); also TNP-ATP displacement and thermal stabilization. The class given is binding. Background: SPR reads the build-up and loss of mass on a sensor chip optically.
Series [3] concerns the target T1, HSP18. Put plainly: SPR (Biacore T200, HSP18 immobilized on CM5 chip). In kind it is binding.
Series [4] deals with the molecule itself. Briefly: dynamic light scattering; HSP18 0.5 mg/ml in 50 mM phosphate buffer pH 7.5, 25°C, with or without 1 mM ATP; hydrodynamic radius of the oligomers.

For orientation: Kd means the constant that tells how readily two partners part at equilibrium. A low value points to higher affinity. Regarding `Nc1ncnc2c1ncn2[C@@H]1O[C@H](COP(=O)(O)OP(=O)(O)OP(=O)(O)O)[C@H]2OC3(O[C@H]21)C([N+](=O)[O-])=CC(=[N+]([O-])[O-])C=C3[N+](=O)[O-]` (stereo partly shown) [TNP-ATP], at HSP18 [1], the Kd is 0.73 µM.
Turning to `Nc1ncnc2c1ncn2[C@@H]1O[C@H](COP(=O)(O)OP(=O)(O)OP(=O)(O)O)[C@@H](O)[C@H]1O` [ATP], binding at HSP18 [2] was put at a Kd of 0.59 µM. This counts as sub-micromolar.
Molecule `Nc1ncnc2c1ncn2[C@@H]1O[C@H](CO[P@](=O)(O)O[P@](=O)(O)O[P@@](=O)(O)S)[C@@H](O)[C@H]1O` [ATP-γS] registered a Kd at HSP18 [3] of 0.33 µM.

B1: Mycobacterium leprae HSP18 (18 kDa antigen, small heat shock protein) (natural protein, UniProt P12809 1-148, looked up)
chain: MLMRTDPFRELDRFAEQVLGTSARPAVMPMDAWREGEEFVVEFDLPGIKADSLDIDIERNVVTVRAERPGVDPDREMLAAERPRGVFNRQLVLGENLDTERILASYQEGVLKLSIPVAERAKPRKISVDRGNNGHQTINKTAHEIIDA
notes: M. leprae HSP18 (18 kDa antigen), wild-type; source: recombinant wild-type, expressed and purified as described previously [5]; copies: 29
B1: in series [4], the binding result was “binds”.
